Consider 22 compounds from patent US20090170886A1 (Pfizer Inc, priority 2005, published 2009).

In experiment [1] the target is T1, androgen receptor in MDA-MB453-MMTV clone 54-19 cells (Homo sapiens, UniProt P10275).
T1 sequence (P10275 1-920 Q868H): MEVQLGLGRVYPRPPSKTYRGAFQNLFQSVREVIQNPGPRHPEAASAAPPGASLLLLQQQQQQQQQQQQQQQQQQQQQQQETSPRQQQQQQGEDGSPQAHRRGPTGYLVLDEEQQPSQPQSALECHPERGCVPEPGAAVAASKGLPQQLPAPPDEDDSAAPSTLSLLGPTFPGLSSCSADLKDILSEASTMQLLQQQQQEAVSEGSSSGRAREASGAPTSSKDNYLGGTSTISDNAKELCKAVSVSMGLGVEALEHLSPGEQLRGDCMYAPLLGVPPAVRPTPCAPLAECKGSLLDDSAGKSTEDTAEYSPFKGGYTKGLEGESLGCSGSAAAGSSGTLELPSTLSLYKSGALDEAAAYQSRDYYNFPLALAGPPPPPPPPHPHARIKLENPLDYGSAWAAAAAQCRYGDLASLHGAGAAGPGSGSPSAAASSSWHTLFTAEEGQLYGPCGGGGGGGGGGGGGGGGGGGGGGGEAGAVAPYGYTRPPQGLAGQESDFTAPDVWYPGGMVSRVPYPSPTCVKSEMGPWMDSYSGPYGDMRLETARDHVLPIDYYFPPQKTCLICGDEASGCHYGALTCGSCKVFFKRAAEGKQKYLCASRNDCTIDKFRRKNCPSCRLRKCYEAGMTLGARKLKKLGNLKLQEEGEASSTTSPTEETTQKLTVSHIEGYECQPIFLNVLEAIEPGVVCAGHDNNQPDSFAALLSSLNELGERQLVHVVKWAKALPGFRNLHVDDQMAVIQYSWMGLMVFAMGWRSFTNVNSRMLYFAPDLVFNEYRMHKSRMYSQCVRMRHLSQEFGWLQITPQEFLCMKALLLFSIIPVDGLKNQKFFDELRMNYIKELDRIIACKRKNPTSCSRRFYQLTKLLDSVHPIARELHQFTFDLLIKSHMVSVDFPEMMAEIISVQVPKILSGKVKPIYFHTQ
Put plainly: AR Antagonist Cell Assay (MMTV-luciferase reporter, DHT-induced). Format: cell-based. The settings on record: MDA-MB453-MMTV clone 54-19, 100 pM DHT, 17 hr; mean of multiple tests. As for the experimental part: The compounds ability to antagonize the effects of androgen on the androgen receptor were determined in a whole cell assay as described immediately below.
Cell line: MDA-MB453-MMTV clone 54-19. This cell line is a stable transfected cell line with MDA-MB453 cell background (a human breast tumor cell line expressing androgen receptor). A MMTV minimal promoter containing ARE was first cloned in front of a firefly luciferase reporter gene. Then the cascade was cloned into transfection vector pUV120puro. Electroporation method was used for transfecting MDA-MB-453 cell. Puromycin resistant stable cell line was selected.
Culture medium: DMEM (high glucose, Gibco cat #: 11960-044), 10% FBS, and 1% L-glutamine
Plating medium: DMEM (phenol red free), 10% charcoal treated HyClone serum, 1% L-glutamine
Assay medium: DMEM (phenol red free), 1% charcoal treated HyClone serum, 1% L-glutamine, and 1% penicillin/streptomycin
3× luciferase buffer: 2% beta-mercaptoethanol, 0.6% ATP, 0.0135% luciferine in cell lysis buffer
Cells are maintained in culture medium, splitting cells when they reach 80-90% confluence. To test compounds, 10,000 cells/well are plated to opaque 96 cell culture plate in 100 ul/well plating medium, culture for overnight at 37° C. in cell culture incubator. Carefully remove plating medium, then add 80 ul/well of pre-warmed assay medium, add 10 ul/well testing compound (final concentration at) 1000 nM, 200 nM, 40 nM, 8 nM, 1.6 nM, and 0.32 nM), incubate at 37° C. for 30 minutes. Add 10 ul/well freshly prepared DHT (final concentration at 100 pM) to each well, incubate at 37° C. for 17 hr (overnight). Add 50 ul/well 3× luciferase buffer, incubate at room temperature for 5 minutes, then count on Luminometer. The fold induction over background by 100 pM DHT in the absence of testing compounds is standardized as 100% and experimental result is expressed as percentage of inhibition by testing compounds.
The results are reported as the mean of multiple tests as described below (the numbers of tests are indicated in the footnote). ND denotes that the compound was not tested.

In experiment [2] the target is T2, hAR (human androgen receptor, baculovirus/Sf9 generated extracts) (Homo sapiens, UniProt P10275).
T2 construct: made in house; host or cells: baculovirus/Sf9 insect cells (crude extract)
T2 sequence (P10275 1-920): T1 sequence (P10275 1-920 Q868H) with H868Q
The experiment is described as follows: AR Binding Assay (competitive binding with 3H-DHT tracer). Conditions: 1 nM 3H-DHT, one hour at 4° C., mean of multiple tests. Here is the method: The compounds of Formula I have affinity for the androgen receptor. […] The description below describes how the assay was carried out.
Competitive binding analysis was performed on baculovirus/Sf9 generated hAR extracts in the presence or absence of different concentrations of test agent and a fixed concentration of ^3H-dihydrotestosterone (^3H-DHT) as tracer. This binding assay method is a modification of a protocol previously described (Liao S., et. al., J. Steroid Biochem., 20:11-17, 1984). Briefly, progressively decreasing concentrations of compounds are incubated in the presence of hAR extract (Chang et al., P.N.A.S., Vol. 89, pp. 5546-5950, 1992), hydroxylapatite, and 1 nM ^3H-DHT for one hour at 4° C. Subsequently, the binding reactions are washed three times to completely remove excess unbound ^3H-DHT. hAR bound ^3H-DHT levels are determined in the presence of compounds (i.e. competitive binding) and compared to levels bound when no competitor is present (i.e. maximum binding). Compound binding affinity to the hAR is expressed as the concentration of compound at which one half of the maximum binding is inhibited. Table II below provides the results that were obtained for selected compounds (reported data is the mean of multiple tests as shown below).

[3] abbreviates: hAR extract, read-out: AR Binding IC50.

Numbering of substitutions follows the chain as printed. Where two headings read alike, the source gives them in different places.

On to `CC(Oc1ccc(C#N)c(C(F)(F)F)c1)c1ccccc1C(F)(F)F` (centres unmarked) [Example 31, 2-Trifluoromethyl-4-[1-(2-trifluoromethyl-phenyl)-ethoxy]-benzonitrile], for which the figures for the 50% inhibitory concentration (IC50) in experiment [1] and in experiment [2] (setting [3]) were 398 nM and 146 nM, respectively.
In the case of `C[C@@H](Oc1ccc(C#N)c(C(F)(F)F)c1)c1ccccn1` [Example 36, (R)-(+)-4-(1-Pyridin-2-yl-ethoxy)-2-trifluoromethyl-benzonitrile], the IC50 in experiment [1] amounted to 28 nM; in experiment [2] (AR Binding IC50, hAR extract), 54 nM.
Regarding `CC(C)(Oc1ccc(C#N)cc1Cl)c1ccccc1` [Example 37, 3-Chloro-4-(1-methyl-1-phenyl-ethoxy)-benzonitrile], the 50% inhibitory concentration (IC50) is greater than 1000 nM in experiment [1] and 184 nM in experiment [2] (setting [3]).
As to `N#Cc1ccc(OCc2cccc(O)c2)c(Cl)c1` [Example 41, 3-Chloro-4-(3-hydroxy-benzyloxy)-benzonitrile], the concentration for half-maximal inhibition (IC50) in experiment [1] is 286 nM; in experiment [2] (setting [3]), 76 nM.
On the same counts, the results for `CCCCCCC(Oc1ccc(C#N)c(C(F)(F)F)c1)c1ccccc1` (centres unmarked) [Example 46, 4-(1-Phenyl-heptyloxy)-2-trifluoromethyl-benzonitrile] are greater than 1000 nM and 204 nM.
As for `CCC(Oc1ccc(C#N)c(C(F)(F)F)c1)c1ccccc1` (centres unmarked) [Example 48, 4-(1-Phenyl-propoxy)-2-trifluoromethyl-benzonitrile], the half-maximal inhibitory concentration (IC50) was 345 nM in experiment [1] and 38 nM in experiment [2] (AR Binding IC50, hAR extract).
Take `N#Cc1ccc(OCc2ccccc2)cc1C(F)(F)F` [Example 50, 4-Benzyloxy-2-trifluoromethyl-benzonitrile]: the IC50 in experiment [1] was determined as 508 nM; in experiment [2] (setting [3]) it was 174 nM.
As to `Cc1cccc(C(C)Oc2ccc(C#N)c(C(F)(F)F)c2)c1` (centres unmarked) [Example 51, 4-(1-m-Tolyl-ethoxy)-2-trifluoromethyl-benzonitrile], the IC50 in experiment [1] is greater than 1000 nM; in experiment [2] (AR Binding IC50, hAR extract), 108 nM.
With `CC(Oc1ccc(C#N)c(C(F)(F)F)c1)c1ccccc1` (centres unmarked) [Example 53, 4-(1-Phenyl-ethoxy)-2-trifluoromethyl-benzonitrile], the IC50 in experiment [1] was found to be 55 nM; in experiment [2] (AR Binding IC50, hAR extract), 8 nM.
With `CCOc1ccccc1COc1ccc(C#N)c(C(F)(F)F)c1` [Example 55, 4-(2-Ethoxy-benzyloxy)-2-trifluoromethyl-benzonitrile], the IC50 in experiment [1] was greater than 1000 nM; in experiment [2] (setting [3]) it was 125 nM.
Regarding `C#CC(Oc1ccc(C#N)c(C(F)(F)F)c1)c1ccccc1` (centres unmarked) [Example 56, 4-(1-Phenyl-prop-2-ynyloxy)-2-trifluoromethyl-benzonitrile], the IC50 was 20 nM in experiment [1] and 74 nM in experiment [2] (AR Binding IC50, hAR extract).
For the compound `CC(Oc1ccc(C#N)cc1Cl)c1ccccc1` (centres unmarked) [Example 57, 3-Chloro-4-(1-phenyl-ethoxy)-benzonitrile], the IC50 was 86 nM in experiment [1] and 240 nM in experiment [2] (AR Binding IC50, hAR extract).
As for `CCC(C)(Oc1ccc(C#N)c(Cl)c1)c1ccccc1` (centres unmarked) [Example 58, 2-Chloro-4-(1-methyl-1-phenyl-propoxy)-benzonitrile], the half-inhibitory concentration (IC50) was greater than 1000 nM in experiment [1] and 162 nM in experiment [2] (setting [3]).
`N#Cc1ccc(OCc2ccccc2)cc1Cl` [Example 59, 4-Benzyloxy-2-chloro-benzonitrile]: the values for the IC50 in experiment [1] and in experiment [2] (setting [3]) were 108 nM and 38 nM, respectively.
As for `Cc1cccc(C(C)Oc2ccc(C#N)c(Cl)c2)c1` (centres unmarked) [Example 60, 2-Chloro-4-(1-m-tolyl-ethoxy)-benzonitrile], the IC50 in experiment [1] is greater than 1000 nM; in experiment [2] (AR Binding IC50, hAR extract) it was 74 nM.
On to `Cc1ccc(C)c(C(C)Oc2ccc(C#N)c(Cl)c2)c1` (centres unmarked) [Example 61, 2-Chloro-4-[1-(2,5-dimethyl-phenyl)-ethoxy]-benzonitrile], for which the IC50 in experiment [1] was greater than 1000 nM; in experiment [2] (AR Binding IC50, hAR extract) it was 61 nM.
On to `Cc1ccccc1C(C)Oc1ccc(C#N)c(Cl)c1` (centres unmarked) [Example 62], for which the concentration for half-maximal inhibition (IC50) in experiment [1] was 464 nM; in experiment [2] (setting [3]) it was 52 nM.
On to `Cc1cccc(COc2ccc(C#N)c(Cl)c2)c1` [Example 64, 2-Chloro-4-(3-methyl-benzyloxy)-benzonitrile], for which the 50% inhibitory concentration (IC50) in experiment [1] was greater than 1000 nM; in experiment [2] (AR Binding IC50, hAR extract), 74 nM.
Turning to `Cc1ccccc1COc1ccc(C#N)c(Cl)c1` [Example 65, 2-Chloro-4-(2-methyl-benzyloxy)-benzonitrile], the IC50 in experiment [1] was greater than 1000 nM; in experiment [2] (setting [3]) it was 129 nM.
`N#Cc1ccc(OCc2cccc(O)c2)cc1Cl` [Example 66, 2-Chloro-4-(3-hydroxy-benzyloxy)-benzonitrile]: the half-maximal inhibitory concentration (IC50) in experiment [1] is 4 nM; in experiment [2] (AR Binding IC50, hAR extract), 11 nM.
As to `COc1ccccc1COc1ccc(C#N)c(Cl)c1` [Example 67, 2-Chloro-4-(2-methoxy-benzyloxy)-benzonitrile], the IC50 in experiment [1] came out at 166 nM; in experiment [2] (AR Binding IC50, hAR extract), 99 nM.
On to `CCOc1ccccc1COc1ccc(C#N)c(Cl)c1` [Example 68, 2-Chloro-4-(2-ethoxy-benzyloxy)-benzonitrile], for which the half-inhibitory concentration (IC50) was greater than 1000 nM in experiment [1] and 213 nM in experiment [2] (setting [3]).
